Holding throughout (assay): auto-S-palmitoylation of HEK293 membranes, SDS-PAGE fluorescence normalised to tag Western blot
Assay [1] concerns the target T1, human zDHHC7 (Homo sapiens, UniProt Q9NXF8).
T1 construct: full length, His6-Myc tag kept (pCEpuro-His6-Myc-1), HEK293 membrane fraction
T1 sequence (Q9NXF8 1-308): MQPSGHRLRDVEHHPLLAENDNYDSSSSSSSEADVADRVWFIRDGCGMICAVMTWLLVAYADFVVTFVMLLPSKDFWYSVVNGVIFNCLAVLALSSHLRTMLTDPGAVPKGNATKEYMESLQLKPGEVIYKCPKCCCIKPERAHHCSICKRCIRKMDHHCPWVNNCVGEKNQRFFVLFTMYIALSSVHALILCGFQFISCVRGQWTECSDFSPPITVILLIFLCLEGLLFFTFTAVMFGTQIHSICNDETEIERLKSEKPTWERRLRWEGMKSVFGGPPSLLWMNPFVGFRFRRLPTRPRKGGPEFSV
Format: cell-based. The following applies: pH 7.4, 37 °C, 2 min; labelled compound; covalent thioester at active-site Cys. The source says:
auto-S-palmitoylation of HEK293 membranes, SDS-PAGE fluorescence normalised to tag Western blot on human zDHHC7 | N44D mutation within the N-terminal cytoplasmic tail of zDHHC7 (Fig. 4A) had no effect

Assay [2] addresses T1, human zDHHC7. Format: cell-based. The following applies: pH 7.4, 37 °C, 2 min; labelled compound; covalent thioester at active-site Cys. This is another data set of the same source.
In a further assay the target is T2, human zDHHC14 (Homo sapiens, UniProt Q8IZN3, C181Y).
T2 construct: full length, His6-Myc tag kept (pCEpuro-His6-Myc-1), HEK293 membrane fraction
T2 sequence (Q8IZN3 1-488 C181Y): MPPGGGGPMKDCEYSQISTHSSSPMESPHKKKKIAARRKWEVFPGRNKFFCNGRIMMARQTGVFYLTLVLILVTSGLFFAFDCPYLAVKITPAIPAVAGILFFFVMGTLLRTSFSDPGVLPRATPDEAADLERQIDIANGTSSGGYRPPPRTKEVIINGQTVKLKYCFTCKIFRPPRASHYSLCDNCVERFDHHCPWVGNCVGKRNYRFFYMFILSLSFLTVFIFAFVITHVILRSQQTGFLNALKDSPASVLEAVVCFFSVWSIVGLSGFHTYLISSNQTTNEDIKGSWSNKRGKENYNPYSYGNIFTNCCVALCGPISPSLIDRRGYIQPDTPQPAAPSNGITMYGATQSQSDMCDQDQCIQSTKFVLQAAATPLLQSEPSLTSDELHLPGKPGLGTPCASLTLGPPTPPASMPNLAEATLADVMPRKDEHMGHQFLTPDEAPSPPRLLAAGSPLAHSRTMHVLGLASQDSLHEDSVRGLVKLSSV
Format: biochemical. The following applies: pH 7.4, 37 °C, 2 min; labelled compound; covalent thioester at active-site Cys.

For the next assay, the system named is T3, mouse zDHHC11.
T3 construct: full length, HA tag kept (pEF-Bos-HA), HEK293 membrane fraction; the source plasmid set's older numbering used DHHC-11 for Zdhhc23, so the gene is not certain
Format: cell-based. The following applies: pH 7.4, 37 °C; labelled compound; covalent thioester at active-site Cys.

Molecules are shown by their SMILES.

For `CC(C)(COP(=O)(O)OP(=O)(O)OC[C@H]1O[C@@H](n2cnc3c(N)ncnc32)[C@H](O)[C@@H]1OP(=O)(O)O)[C@@H](O)C(=O)NCCC(=O)NCCSC(=O)CCCCCCCCCCCCCCCNc1ccc([N+](=O)[O-])c2nonc12` [NBD-palmitoyl-CoA, N-[(7-nitro-2-1,3-benzoxadiazol-4-yl)-methyl]amino palmitoyl], the results for the Km on human zDHHC7 [1], on human zDHHC7 [2] and in the assay with mouse zDHHC11 were 2.85 ± 0.72 µM, 3.4 ± 0.57 µM and 0.89 ± 0.23 µM, respectively. In addition, on human zDHHC14, the “auto-S-palmitoylation of HEK293 membranes, SDS-PAGE fluorescence normalised to t” value was “C→Y mutation of Cys181 within the second zinc finger domain (Fig. 4A) eliminated auto-S-palmitoylation”.

The values are drawn from article PMC11870023, “A facile assay for zDHHC palmitoyl transferase activation elucidates effects of mutation and modification” (Journal of Lipid Research, 2025).
